# Tested on: not listed separately
# Test: Cytotoxicity against human HepG2 cells
# Format: cell-based
# Details: read-out: TD50 (the source's name)
row,SMILES,CC50 [µg/mL]
1,C=CCn1ncc2c(SCc3ccc(Cl)cc3)ncnc21,> 20
2,Clc1ccc(CSc2ncnc3c2cnn3Cc2cccnc2)cc1,> 40
3,C=CCn1ncc2c(SCC#N)ncnc21,4
4,c1ccc(CSc2ncnc3c2cnn3Cc2cccnc2)cc1,> 40
5,N#CCn1ncc2c(SCc3ccc(Cl)cc3)ncnc21,2

# Tested on: Mycobacterium tuberculosis
# Test: Antimycobacterial activity against Mycobacterium tuberculosis H37Rv
# Format: functional
# Details: not given
row,SMILES,MIC [µg/mL]
1,Clc1ccccc1CSc1ncnc2c1cnn2Cc1ccccc1,250
2,Clc1ccc(CSc2ncnc3[nH]ncc23)cc1,250
3,C=CCn1ncc2c(SCCC)ncnc21,63
4,C#CCn1ncc2c(SCC=C)ncnc21,32
5,c1ccc(Cn2ncc3c(SCC4CC4)ncnc32)cc1,16
6,OCCSc1ncnc2[nH]ncc12,250
7,OCCn1ncc2c(SCc3ccccc3)ncnc21,125
8,C=CCn1ncc2c(SCC3CC3)ncnc21,125
9,c1ccc(Cn2ncc3c(SCc4cccnc4)ncnc32)cc1,32
10,C=CCSc1ncnc2c1cnn2CC=C,125
11,C=CCSc1ncnc2c1cnn2Cc1cccnc1,63
12,C=CCSc1ncnc2c1cnn2Cc1ccccc1,32
13,C=CCCn1ncc2c(SCC=C)ncnc21,63
14,OCCSc1ncnc2c1cnn2Cc1ccccc1,63
15,CCCSc1ncnc2[nH]ncc12,125
16,N#CCn1ncc2c(SCc3ccccc3)ncnc21,32
17,C#CCSc1ncnc2c1cnn2CC=C,63
18,C#CCn1ncc2c(SCc3ccccc3)ncnc21,32
19,c1ccc(CSc2ncnc3[nH]ncc23)cc1,250
20,C=CCSc1ncnc2c1cnn2CC1CC1,32
21,CO[C@H]1/C=C/O[C@@]2(C)Oc3c(C)c(O)c4c(O)c(c(/C=N/N5CCN(C)CC5)c(O)c4c3C2=O)NC(=O)/C(C)=C\C=C\[C@H](C)[C@H](O)[C@@H](C)[C@@H](O)[C@@H](C)[C@H](OC(C)=O)[C@@H]1C [RIFAMPIN],0.016
22,Clc1ccc(CSc2ncnc3c2cnn3Cc2ccccc2)cc1,32
23,c1cncc(CSc2ncnc3[nH]ncc23)c1,250

row,SMILES,MIC [µg/mL]
1,C=CCCSc1ncnc2c1cnn2Cc1cccnc1,32
2,C=CCn1ncc2c(SCc3ccc(Cl)cc3)ncnc21,8
3,CCCSc1ncnc2c1cnn2Cc1ccccc1,16
4,c1ccc(CSc2ncnc3c2cnn3Cc2ccncc2)cc1,16
5,C#CCSc1ncnc2c1cnn2Cc1ccccc1,63
6,C=CCSc1ncnc2[nH]ncc12,250
7,C=CCn1ncc2c(SCc3ccccc3)ncnc21,32
8,C=CCCSc1ncnc2c1cnn2CC=C,32
9,C=CCn1ncc2c(SCc3ccncc3)ncnc21,125
10,N#CCSc1ncnc2c1cnn2CC#N,8
11,N#CCSc1ncnc2c1cnn2Cc1ccccc1,32
12,C=CCn1ncc2c(SCc3ccccc3Cl)ncnc21,32
13,Clc1ccccc1Cn1ncc2c(SCc3ccccc3)ncnc21,16
14,N#CCSc1ncnc2[nH]ncc12,63
15,C=CCCSc1ncnc2[nH]ncc12,125
16,C=CCn1ncc2c(SCCO)ncnc21,250
17,Clc1ccc(CSc2ncnc3c2cnn3Cc2cccnc2)cc1,0.5
18,C=CCSc1ncnc2c1cnn2Cc1ccc(Cl)cc1,16
19,C=CCSc1ncnc2c1cnn2Cc1ccncc1,63
20,c1nc(SCC2CC2)c2cn[nH]c2n1,125
21,Clc1ccccc1CSc1ncnc2[nH]ncc12,250
22,C=CCSc1ncnc2c1cnn2CCC,125
23,C=CCSc1ncnc2c1cnn2CCO,250

row,SMILES,MIC [µg/mL]
1,C=CCSc1ncnc2c1cnn2Cc1ccccc1Cl,63
2,c1ccc(CSc2ncnc3c2cnn3CC2CC2)cc1,250
3,C#CCSc1ncnc2c1cnn2CC#C,63
4,c1cc(CSc2ncnc3[nH]ncc23)ccn1,250
5,C=CCn1ncc2c(SCC#N)ncnc21,32
6,C=CCCSc1ncnc2c1cnn2Cc1ccc(Cl)cc1,125
7,C=CCCSc1ncnc2c1cnn2Cc1ccccc1,16
8,C=CCCn1ncc2c(SCc3ccccc3)ncnc21,16
9,c1ccc(CSc2ncnc3c2cnn3Cc2cccnc2)cc1,8
10,Clc1ccc(Cn2ncc3c(SCc4ccccc4)ncnc32)cc1,16
11,CCCn1ncc2c(SCc3ccccc3)ncnc21,32
12,c1ccc(CSc2ncnc3c2cnn3Cc2ccccc2)cc1,16
13,C=CCCSc1ncnc2c1cnn2CC#N,63
14,CC[C@@H](CO)NCCN[C@@H](CC)CO [ETHAMBUTOL],2.5
15,c1ccc(Cn2ncc3c(SCc4ccncc4)ncnc32)cc1,32
16,C=CCn1ncc2c(SCc3cccnc3)ncnc21,250
17,Clc1ccc(CSc2ncnc3c2cnn3Cc2ccc(Cl)cc2)cc1,63
18,NNC(=O)c1ccncc1 [ISONIAZID],0.25
19,N#CCSc1ncnc2c1cnn2Cc1cccnc1,63
20,N#CCSc1ncnc2c1cnn2Cc1ccc(Cl)cc1,125
21,C=CCSc1ncnc2c1cnn2CC#N,16
22,N#CCn1ncc2c(SCc3ccc(Cl)cc3)ncnc21,8
